A short description of the series: Injection of alcian blue solution at the lowest electric resistance point near Jung-Wan, arrival at pancreas observed by stereoscopic microscope. It is filed as in vivo. Particulars: hairless mouse, subcutaneous tissue near Jung-Wan, 0.1 μl a minute for 2 to 3 hours. Here is the method: For laboratory animals, the hairless mouse (males, about 6 weeks old) supplied from the JungAng Laboratory Animal Company were used. The laboratory animals were managed in a breeding cage with temperature of 23° C. and 60% relative humidity under 12 hour light/dark cycles and supplied with food and water for ad libitum access.
The hairless mouse living in the above environment was anaesthetized by administering 1.5 g/kg of urethane, and all of the surgical procedures were performed under anesthesia. The hairless mouse under anesthesia were placed on the operating table under the stereoscopic microscope (Olympus SZX12) connected with the computer and the CCD camera.
Jung-Wan was determined at the middle of the umbilicus and the xiphoid process-sternum junction (JungJeong, one of acupuncture points) along the linea alba of the hairless mouse according to “GolDo method”, which is a method of finding acupuncture points by using its unique measuring units. After Jung-Wan was determined, the point having the lowest electric resistance was found within a radius of 2 mm from Jung-Wan by using the electro acupuncture point detector (Hamtech Korea Co., YNS202-S) and determined as the point into which an alcian blue solution would be injected. […]

The source of these data is US8057783B2, “Method of injecting liquid agents at acupuncture points to arrive internal organs and method of visualizing arrival of liquid agents” (Seoul National University Industry Foundation, priority 2007, dated 2011).

For alcian blue [alcian blue solution], the “distribution of the visualizing material in internal organs after injection” value is given as “dispersed into the threadlike structures penetrating out through the surface of the pancreas”.
